Measured values as given in PMC6954543, “A window-of-opportunity trial of the CXCR1/2 inhibitor reparixin in operable HER-2-negative breast cancer” (Breast Cancer Research : BCR, 2020).

Key:
Assay type in all cases: in vivo, human
[1] = Pharmacokinetics of single-agent oral reparixin in plasma
Procedure: Samples for pharmacokinetics (PK) were collected at selected sites in consenting patients. Venous blood samples (6 mL) were collected from a forearm vein at times 0.0, 0.25, 0.5, 1.0, 2.0, 4.0, 6.0, and 8.0 h following reparixin administration on days 1 and 21. The blood samples were immediately centrifuged at 4 °C, 1200 relative centrifugal force (RCF), for 10 min, and the plasma collected. Each plasma sample was divided into 2 aliquots and stored in 2 pre-labeled polypropylene screw-capped tubes (about 2 mL each) at − 20 °C until analysis. The analysis was performed at the Dompé Analytical Development Laboratories in L’Aquila, Italy.

[2] = tested on: ALDH+ and CD24−/CD44+ CSC; test: CSC evaluation in core biopsy samples by flow cytometry
Procedure: Patients underwent core biopsies at baseline (day − 14 to 0) and at the completion of therapy (day 21). Three to five ≥ 18-gage needle biopsies were taken to measure the changes in CSC populations and pathway markers. If not performed at the completion of treatment, a core biopsy was taken on the day of surgery by the same technique. A sample of the surgically resected tumor tissue was also taken.
CSC populations (CD24^−/CD44^+ and ALDH^+) were measured by flow-cytometry of single-cell suspensions obtained from tumor biopsies (Additional file 1: Supplemental Materials) by using anti-human CD44-APC (clone G44-26) and CD24-FITC (clone ML5, RUO) antibodies (BD Biosciences, Franklin Lakes, NJ), and ALDEFLUOR assay (StemCell Technologies, Inc., Vancouver, BC, Canada), respectively, as previously published.
In the absence of reference data from the literature, signal of activity was defined as a ≥ 20% reduction in CSC (defined by either the ALDH^+− or CD24^−/CD44^+ phenotype) from baseline values as measured by flow cytometry, accompanied by a consistent reduction of the same cell population by IHC. The 20% cutoff was chosen considering only 1 21-day course of reparixin could be administered before surgery. Given the exploratory nature of the study to be conducted in a curable patient population, a sample of 40 patients divided into 2 subgroups of 20 patient each (i.e., ER+ and/or PgR+ and TNBC) was deemed adequate based upon simulations using the Wilson score method to obtain a lower limit for the probability of success. For each subgroup with this sample size, the study will have 80% power to detect a signal of activity (as defined above) observed in ≥ 70% patients as statistically significant at the 0.05 significance level.
To obtain single cell suspension, samples were weighed and observed for appearance, then placed in digestion media and kept at room temperature. The specimens were then rocked for 1 hour at 185 rpm (1.5 hours for surgical specimens), then filtered through 70 µm filter. HBSS+ was added to rinse any residual cells from filter, and the specimens were centrifuged 350xg for 5 minutes at 4 °C. For RBC lysis, cells were resuspended in sterile cell culture grade water, and after 20 seconds, 10XPBS was added. The specimens were then centrifuged at 350xg for 5 minutes at 4 °C. Supernatant was removed. The rest of the specimen was then filtered with 40 µm sterile cell strainer. Cell concentration was measured using Invitrogen Countess.

CXCR1+ cells = test: CXCR1+ cell evaluation in core biopsy samples by flow cytometry
From the text: Patients underwent core biopsies at baseline (day − 14 to 0) and at the completion of therapy (day 21). Three to five ≥ 18-gage needle biopsies were taken to measure the changes in CSC populations and pathway markers. If not performed at the completion of treatment, a core biopsy was taken on the day of surgery by the same technique. A sample of the surgically resected tumor tissue was also taken. Additional analyses were directed to determine CXCR1 (PerCP/Cy5.5 mouse anti-human CD181 (CXCR1; BioLegend, San Diego, CA) and cell lineages using the following antibodies: APC mouse anti-human CD44 (BD Bioscience, San Jose, CA; catalog #559942), PE-Cy7 mouse anti-human CD24 (#561646), PE mouse anti-human CD2 (#555327), PE mouse anti-human CD31 (#555446), PE mouse anti-human CD3 (#555333), PE mouse anti-human CD18 (#555924), PE mouse anti-human CD16 (#555407), PE mouse anti-human CD19 (#555413), and PE mouse anti-human CD45 (#555483).

CD18+ PMNs = test: Adhesion molecule expression on peripheral blood PMNs by flow cytometry; settings: after 21 days of treatment vs baseline; p < 0.05
Procedure: The expression of adhesion molecules (CD11b, CD18, and CD66b) on PMNs was investigated. Typically, 100 µL of whole blood were incubated with 10nM CXCL8 for 10 minutes at room temperature to upregulate the expression of adhesion molecules. Untreated whole blood samples were included as control. We measured the percentage of PMNs that expressed CD11b, CD18, and CD66b as well as the Mean Fluorescence of Intensity (MFI) of each adhesion molecule as a measure of expression density by flow cytometry.

monocytes and PMNs = test: Intracellular cytokine production by monocytes and PMNs by flow cytometry; settings: without or with activation by LPS and/or CXCL8; data not shown
Procedure: Intracellular cytokine production by peripheral blood monocytes and PMNs were assessed using a modification of previously published procedure. Briefly, monocytes and PMNs in whole blood were activated with CXCL8 (10nM), LPS ([…]), and LPS+CXCL8 for 2 hours at 37 °C before the addition of Brefeldin A (BFA) for another 3 hours to block the transportation of the intracellular cytokines from the Golgi to the cell surface. Thereafter, red blood cells were lysed with 1×FACSTM Lysing Solution (BD Biosciences) and the membrane of activated cells permeabilized with 1×FACSTM Perm 2 solution (BD Biosciences). Next, the activated monocytes and PMNs were stained with fluorochrome-conjugated specific antibodies to IL-1β, TNF-α, CXCL8, and IL-6 before the samples were analyzed by flow cytometry. The percentages of monocytes and PMNs that produced IL-1β, TNF-α, CXCL8, and IL-6 were recorded.

[3] = female, human, in vivo, po, 1000 mg

In the case of CC(C)Cc1ccc([C@@H](C)C(=O)NS(C)(=O)=O)cc1 [reparixin], the Tmax [1, 3] is reported as 1 h, the half-life [1, 3] is reported as ~2 h and the “bioavailability following oral administration” value ([1]; human, in vivo, po) is reported as “high bioavailability”. For the same compound, the “systemic exposure (Cmax and AUClast), change from day 1 to day 21” value ([1]; human, in vivo, po, 1000 mg) was “did not change”, the “accumulation upon multiple dosing” value ([1]; oral 1000 mg t.i.d. for 21 days) was “no accumulation” and the “patients with decrease in ALDH+ cells not accompanied by reduction of CD24−/CD44+ cells” value [2] was 2 patients. The “patients with decrease in CD24−/CD44+ CSC not paralleled by decrease in ALDH+ CSC” value [2] was 6 patients, the “patients without ALDH+ CSC at baseline in whom ALDH+ CSCs were detected at day 21” value ([2]; core biopsy) was 5/9 and the “patients without CD24−/CD44+ CSC at baseline in whom CD24−/CD44+ CSCs were detected at day 21” value ([2]; core biopsy) was 6/6. For the same compound, the “patients with CXCR1+ tumor cells decreased at day 21” value (CXCR1+ cells) was 7/13, the “patients with all viable CXCR1+ cells reduced at day 21 vs baseline” value (CXCR1+ cells) was 6/13 and the “patients with parallel decrease in both CXCR1+ cell populations” value (CXCR1+ cells) was 4/13. The “percentage of CD18+ PMNs following in vitro stimulation with CXCL8” value (CD18+ PMNs) was “decreased” and the “production of inflammatory cytokines (CXCL8, IL-6, TNF-α, IL-1β) by monocytes and PMNs” value (monocytes and PMNs) was “No statistically significant difference”.
